tested on: not given; experiment: not given; conditions: not given

Row | melting point | Structure (SMILES)
1 | 259 °C | Cn1ncc(C(=O)O)c1C(=O)Nc1ccc2nc(-c3ccccc3)nn2c1 [Example 1, 1-Methyl-5-(2-phenyl-[1,2,4]triazolo[1,5-a]pyridin-6-ylcarbamoyl)-1H-pyrazole-4-carboxylic acid]
2 | 210 °C | Cn1ncc(C(=O)N2CCCC2)c1C(=O)Nc1ccc2nc(-c3ccccc3)nn2c1 [Example 2, 2-Methyl-4-(pyrrolidine-1-carbonyl)-2H-pyrazole-3-carboxylic acid (2-phenyl-[1,2,4]triazolo[1,5-a]pyridin-6-yl)-amide]
3 | 243 °C | Cn1ncc(C(=O)N2CC(F)C2)c1C(=O)Nc1ccc2nc(-c3ccccc3)nn2c1 [Example 6, 4-(3-Fluoro-azetidine-1-carbonyl)-2-methyl-2H-pyrazole-3-carboxylic acid (2-phenyl-[1,2,4]triazolo[1,5-a]pyridin-6-yl)-amide]
4 | 106 °C | CN(C(=O)c1cnn(C)c1C(=O)Nc1ccc2nc(-c3ccccc3)nn2c1)C1CC1 [Example 8, 2-Methyl-2H-pyrazole-3,4-dicarboxylic acid 4-(cyclopropyl-methyl-amide) 3-[(2-phenyl-[1,2,4]triazolo[1,5-a]pyridin-6-yl)-amide]]
5 | 229 °C | Cn1ncc(C(=O)N2CCOCC2)c1C(=O)Nc1ccc2nc(-c3cccnc3)nn2c1 [Example 9, 2-Methyl-4-(morpholine-4-carbonyl)-2H-pyrazole-3-carboxylic acid (2-pyridin-3-yl-[1,2,4]triazolo[1,5-a]pyridin-6-yl)-amide]
6 | 272 °C | Cn1ncc(C(=O)N2CCC2)c1C(=O)Nc1ccc2nc(-c3cccnc3)nn2c1 [Example 10, 4-(Azetidine-1-carbonyl)-1-methyl-N-(2-(pyridin-3-yl)-[1,2,4]triazolo[1,5-a]pyridin-6-yl)-1H-pyrazole-5-carboxamide]

molecular target: human PDE10A (Homo sapiens (Human), UniProt Q9Y233); experiment: human PDE10A full length Scintillation Proximity Assay (SPA); type: biochemical; conditions: 50 nM cGMP + 50 nM [3H]-cGMP, 20 minutes at room temperature, read-out: PDE10A inhibition IC50
Sequence (Q9Y233 other isoform, or with tags, fused parts or gaps): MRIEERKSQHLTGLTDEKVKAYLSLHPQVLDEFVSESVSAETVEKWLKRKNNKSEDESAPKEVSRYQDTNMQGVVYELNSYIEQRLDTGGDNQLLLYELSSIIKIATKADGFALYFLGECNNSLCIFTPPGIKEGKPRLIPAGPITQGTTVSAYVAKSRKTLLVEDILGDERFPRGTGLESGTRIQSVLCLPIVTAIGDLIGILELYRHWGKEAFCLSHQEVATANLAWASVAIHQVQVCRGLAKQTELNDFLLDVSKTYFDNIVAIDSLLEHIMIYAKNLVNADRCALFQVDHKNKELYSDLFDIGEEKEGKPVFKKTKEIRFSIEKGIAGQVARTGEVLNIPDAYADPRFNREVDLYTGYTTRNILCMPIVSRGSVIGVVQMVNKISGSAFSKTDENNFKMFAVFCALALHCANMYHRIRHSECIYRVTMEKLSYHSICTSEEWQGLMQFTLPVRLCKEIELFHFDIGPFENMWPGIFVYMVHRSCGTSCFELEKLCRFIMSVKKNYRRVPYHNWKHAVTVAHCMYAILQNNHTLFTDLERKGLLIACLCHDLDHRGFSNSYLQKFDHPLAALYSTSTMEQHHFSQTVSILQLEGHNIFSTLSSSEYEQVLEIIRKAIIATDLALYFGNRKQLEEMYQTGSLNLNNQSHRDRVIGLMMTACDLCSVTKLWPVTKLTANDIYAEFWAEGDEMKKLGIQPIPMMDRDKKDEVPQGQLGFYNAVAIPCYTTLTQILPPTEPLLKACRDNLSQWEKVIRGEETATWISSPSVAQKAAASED
Experimental: The following test was carried out in order to determine the activity of the compounds of the present invention. […] The human PDE10A full length assay was performed in 96-well micro titer plates. […] A range of concentrations of the potential inhibitor was used to generate data for calculating the concentration of inhibitor resulting in 50% of the effect (e.g. […] Non-specific activity was tested without the enzyme. The reaction was initiated by the addition of the substrate solution (cGMP and [^3H]-cGMP) and allowed to progress for 20 minutes at room temperature. The reaction was terminated by adding 25 μl of YSi-SPA scintillation beads (GE Healthcare, cat. # RPNQ0150) in 18 mM zinc sulphate solution (stop reagent). […] Afterwards, radioactive counts were measured on a Perkin Elmer Top-Count Scintillation plate reader.

Row | Structure (SMILES) | IC50
7 | Cn1ncc(C(=O)N2CC(F)C2)c1C(=O)Nc1ccc2nc(-c3ccccc3)nn2c1 [Example 6, 4-(3-Fluoro-azetidine-1-carbonyl)-2-methyl-2H-pyrazole-3-carboxylic acid (2-phenyl-[1,2,4]triazolo[1,5-a]pyridin-6-yl)-amide] | 1.5 nM
8 | CCN(C)C(=O)c1cnn(C)c1C(=O)Nc1ccc2nc(-c3ccccc3)nn2c1 [Example 7, 2-Methyl-2H-pyrazole-3,4-dicarboxylic acid 4-(ethyl-methyl-amide) 3-[(2-phenyl-[1,2,4]triazolo[1,5-a]pyridin-6-yl)-amide]] | 2.2 nM
9 | Cn1ncc(C(=O)N2CC(F)C2)c1C(=O)Nc1ccc2nc(N3CCOCC3)nn2c1 [Example 17, 4-(3-Fluoro-azetidine-1-carbonyl)-2-methyl-2H-pyrazole-3-carboxylic acid (2-morpholin-4-yl-[1,2,4]triazolo[1,5-a]pyridin-6-yl)-amide] | 26.5 nM
10 | CN(C)c1nc2ccc(NC(=O)c3c(C(=O)N4CC(F)C4)cnn3C)cn2n1 [Example 23, 4-(3-Fluoro-azetidine-1-carbonyl)-2-methyl-2H-pyrazole-3-carboxylic acid (2-dimethylamino-[1,2,4]triazolo[1,5-a]pyridin-6-yl)-amide] | 25 nM
11 | CN(C)c1nc2ccc(NC(=O)c3c(C(=O)N(C)C4CC4)cnn3C)cn2n1 [Example 24, 2-Methyl-2H-pyrazole-3,4-dicarboxylic acid 4-(cyclopropyl-methyl-amide) 3-[(2-dimethylamino-[1,2,4]triazolo[1,5-a]pyridin-6-yl)-amide]] | 5.3 nM
12 | CCN(CC)c1nc2ccc(NC(=O)c3c(C(=O)N4CCC4)cnn3C)cn2n1 [Example 28, 2-Methyl-4-(azetitine-4-carbonyl)-2H-pyrazole-3-carboxylic acid (2-diethylamino-[1,2,4]triazolo[1,5-a]pyridin-6-yl)-amide] | 3.3 nM
13 | CCN(C)C(=O)c1cnn(C)c1C(=O)Nc1ccc2nc(N(CC)CC)nn2c1 [Example 29, 2-Methyl-2H-pyrazole-3,4-dicarboxylic acid 3-[(2-diethylamino-[1,2,4]triazolo[1,5-a]pyridin-6-yl)-amide] 4-(ethyl-methyl-amide)] | 9.9 nM
14 | CCN(CC)c1nc2ccc(NC(=O)c3c(C(=O)N(C)C4CC4)cnn3C)cn2n1 [Example 31] | 2.3 nM
15 | Cn1ncc(C(=O)N2CCC2)c1C(=O)Nc1ccc2nc(N3CCCC3)nn2c1 [Example 33] | 0.8 nM
16 | Cn1ncc(C(=O)N2CCCC2)c1C(=O)Nc1ccc2nc(N3CCCC3)nn2c1 [Example 34, 2-Methyl-4-(pyrrolidine-1-carbonyl)-2H-pyrazole-3-carboxylic acid (2-pyrrolidin-1-yl-[1,2,4]triazolo[1,5-a]pyridin-6-yl)-amide] | 1.2 nM
17 | CN(C(=O)c1cnn(C)c1C(=O)Nc1ccc2nc(N3CCCC3)nn2c1)C1CC1 [Example 35] | 1 nM
18 | CCN(CC)C(=O)c1cnn(C)c1C(=O)Nc1ccc2nc(N3CCCC3)nn2c1 [Example 37] | 3.5 nM
19 | CCN(CC)C(=O)c1cnn(C)c1C(=O)Nc1ccc2nc(N3CCC(OC)C3)nn2c1 (stereo not drawn) [Example 38] | 29.4 nM
20 | COC1CCN(c2nc3ccc(NC(=O)c4c(C(=O)N5CCC5)cnn4C)cn3n2)C1 (stereo not drawn) [Example 43, 4-(Azetidine-1-carbonyl)-2-methyl-2H-pyrazole-3-carboxylic acid [2-(3-methoxy-pyrrolidin-1-yl)-[1,2,4]triazolo[1,5-a]pyridin-6-yl]-amide] | 4.9 nM

The remaining molecules from weak to strong by IC50, led by results:

Row | IC50 | Structure (SMILES)
21 | 63.8 nM | Cn1ncc(C(=O)N2CCOCC2)c1C(=O)Nc1ccc2nc(N3CCOCC3)nn2c1 [Example 14, 2-Methyl-4-(morpholine-4-carbonyl)-2H-pyrazole-3-carboxylic acid (2-morpholin-4-yl-[1,2,4]triazolo[1,5-a]pyridin-6-yl)-amide]
22 | 47.3 nM | Cn1ncc(C(=O)O)c1C(=O)Nc1ccc2nc(-c3ccccc3)nn2c1 [Example 1, 1-Methyl-5-(2-phenyl-[1,2,4]triazolo[1,5-a]pyridin-6-ylcarbamoyl)-1H-pyrazole-4-carboxylic acid]
23 | 43.6 nM | Cn1ncc(C(=O)N2CCC2)c1C(=O)Nc1ccc2nc(-c3cccnc3)nn2c1 [Example 10, 4-(Azetidine-1-carbonyl)-1-methyl-N-(2-(pyridin-3-yl)-[1,2,4]triazolo[1,5-a]pyridin-6-yl)-1H-pyrazole-5-carboxamide]
24 | 33.5 nM | CCN(C)C(=O)c1cnn(C)c1C(=O)Nc1ccc2nc(N(C)C)nn2c1 [Example 22, 2-Methyl-2H-pyrazole-3,4-dicarboxylic acid 3-[(2-dimethylamino-[1,2,4]triazolo[1,5-a]pyridin-6-yl)-amide] 4-(ethyl-methyl-amide)]
25 | 30.8 nM | CCN(C)C(=O)c1cnn(C)c1C(=O)Nc1ccc2nc(N3CCOCC3)nn2c1 [Example 16, 2-Methyl-2H-pyrazole-3,4-dicarboxylic acid 4-(ethyl-methyl-amide) 3-[(2-morpholin-4-yl-[1,2,4]triazolo[1,5-a]pyridin-6-yl)-amide]]
26 | 28.6 nM | CN(C)c1nc2ccc(NC(=O)c3c(C(=O)N4CCCC4)cnn3C)cn2n1 [Example 21, 2-Methyl-4-(pyrrolidine-1-carbonyl)-2H-pyrazole-3-carboxylic acid (2-dimethylamino-[1,2,4]triazolo[1,5-a]pyridin-6-yl)-amide]
27 | 23.1 nM | COC1CCN(c2nc3ccc(NC(=O)c4c(C(=O)N5CCOCC5)cnn4C)cn3n2)C1 (stereo not drawn) [Example 39, 2-Methyl-4-(morpholine-4-carbonyl)-2H-pyrazole-3-carboxylic acid [2-(3-methoxy-pyrrolidin-1-yl)-[1,2,4]triazolo[1,5-a]pyridin-6-yl]-amide]
28 | 21.8 nM | CCN(CC)c1nc2ccc(NC(=O)c3c(C(=O)N4CCOCC4)cnn3C)cn2n1 [Example 26, 2-Methyl-4-(morpholine-4-carbonyl)-2H-pyrazole-3-carboxylic acid (2-diethylamino-[1,2,4]triazolo[1,5-a]pyridin-6-yl)-amide]
29 | 19.1 nM | CCN(CC)C(=O)c1cnn(C)c1C(=O)Nc1ccc2nc(N(CC)CC)nn2c1 [Example 30, 2-Methyl-2H-pyrazole-3,4-dicarboxylic acid 4-diethylamide 3-[(2-diethylamino-1,2,4]triazolo[1,5-a]pyridin-6-yl)-amide]
30 | 17 nM | COc1ncc(C2CC2)nc1C(=O)Nc1ccc2nc(-c3ccccc3)nn2c1 [Example 25, 6-cyclopropyl-3-methoxy-N-(2-phenyl-[1,2,4]triazolo[1,5-a]pyridin-6-yl)pyrazine-2-carboxamide]
31 | 17 nM | CCN(C)C(=O)c1cnn(C)c1C(=O)Nc1ccc2nc(N3CCC(OC)C3)nn2c1 (stereo not drawn) [Example 40, 2-Methyl-2H-pyrazole-3,4-dicarboxylic acid 4-(ethyl-methyl-amide) 3-{[2-(3-methoxy-pyrrolidin-1-yl)-[1,2,4]triazolo[1,5-a]pyridin-6-yl]-amide}]
32 | 13.2 nM | Cn1ncc(C(=O)N2CCOCC2)c1C(=O)Nc1ccc2nc(-c3cccnc3)nn2c1 [Example 9, 2-Methyl-4-(morpholine-4-carbonyl)-2H-pyrazole-3-carboxylic acid (2-pyridin-3-yl-[1,2,4]triazolo[1,5-a]pyridin-6-yl)-amide]
33 | 7.9 nM | Cn1ncc(C(=O)N2CCC2)c1C(=O)Nc1ccc2nc(-c3cscn3)nn2c1 [Example 4, 4-(Azetidine-1-carbonyl)-1-methyl-N-(2-(thiazol-4-yl)-[1,2,4]triazolo[1,5-a]pyridin-6-yl)-1H-pyrazole-5-carboxamide]
34 | 7.5 nM | COC1CCN(c2nc3ccc(NC(=O)c4c(C(=O)N5CCCC5)cnn4C)cn3n2)C1 (stereo not drawn) [Example 42, 2-Methyl-4-(pyrrolidine-1-carbonyl)-2H-pyrazole-3-carboxylic acid [2-(3-methoxy-pyrrolidin-1-yl)-[1,2,4]triazolo[1,5-a]pyridin-6-yl]-amide]
35 | 3.5 nM | COC1CCN(c2nc3ccc(NC(=O)c4c(C(=O)N(C)C5CC5)cnn4C)cn3n2)C1 (stereo not drawn) [Example 41, 2-Methyl-2H-pyrazole-3,4-dicarboxylic acid 4-(cyclopropyl-methyl-amide) 3-{[2-(3-methoxy-pyrrolidin-1-yl)-[1,2,4]triazolo[1,5-a]pyridin-6-yl]-amide}]
36 | 2.5 nM | Cn1ncc(C(=O)N2CCOCC2)c1C(=O)Nc1ccc2nc(N3CCCC3)nn2c1 [Example 32, 2-Methyl-4-(morpholine-4-carbonyl)-2H-pyrazole-3-carboxylic acid (2-pyrrolidin-1-yl-[1,2,4]triazolo[1,5-a]pyridin-6-yl)-amide]
37 | 1.9 nM | CCN(C)C(=O)c1cnn(C)c1C(=O)Nc1ccc2nc(N3CCCC3)nn2c1 [Example 36]
38 | 1.2 nM | Cn1ncc(C(=O)N2CCCC2)c1C(=O)Nc1ccc2nc(-c3ccccc3)nn2c1 [Example 2, 2-Methyl-4-(pyrrolidine-1-carbonyl)-2H-pyrazole-3-carboxylic acid (2-phenyl-[1,2,4]triazolo[1,5-a]pyridin-6-yl)-amide]
39 | 0.9 nM | CN(C(=O)c1cnn(C)c1C(=O)Nc1ccc2nc(-c3ccccc3)nn2c1)C1CC1 [Example 8, 2-Methyl-2H-pyrazole-3,4-dicarboxylic acid 4-(cyclopropyl-methyl-amide) 3-[(2-phenyl-[1,2,4]triazolo[1,5-a]pyridin-6-yl)-amide]]

Source: patent US9227970B2, “Triazolopyridine compounds” (Hoffmann-La Roche Inc., priority 2011, dated 2016)
